Earlier results on one compound are cited in publication PMC2660605 (Biochemistry, 2008).

The test system of data set [1] is HIV-1 with IN mutation T66I.
Data set [2] concerns HIV-1 with IN mutation E92Q.
Data set [3] concerns the target HIV-1 integrase E92Q (Human immunodeficiency virus type 1 group M subtype B, UniProt P12497, E1239Q). The conditions noted are these: E92Q mutant.

Turning to `COc1cc2c(cc1Cc1cccc(Cl)c1F)c(=O)c(C(=O)O)cn2[C@H](CO)C(C)C` [Elvitegravir, elvitegravir], the reduced susceptibility in data set [1] is on record as 37 fold; in data set [2], 36 fold. Also, the resistance level in data set [3] is listed as 4.3 fold.
